Results on 21 compounds are retold here after patent publication US20120101083A1, “S1P1 AGONISTS COMPRISING A BICYCLIC N-CONTAINING RING” (GLAXO GROUP LIMITED, priority 2009, published 2012).

As a reminder, the EC50 is the concentration giving half of the maximal effect.

Where a name gives a salt, the structure may show the parent alone. Bounds are passed on as bounds.

T1 sequence (P21453 whole entry): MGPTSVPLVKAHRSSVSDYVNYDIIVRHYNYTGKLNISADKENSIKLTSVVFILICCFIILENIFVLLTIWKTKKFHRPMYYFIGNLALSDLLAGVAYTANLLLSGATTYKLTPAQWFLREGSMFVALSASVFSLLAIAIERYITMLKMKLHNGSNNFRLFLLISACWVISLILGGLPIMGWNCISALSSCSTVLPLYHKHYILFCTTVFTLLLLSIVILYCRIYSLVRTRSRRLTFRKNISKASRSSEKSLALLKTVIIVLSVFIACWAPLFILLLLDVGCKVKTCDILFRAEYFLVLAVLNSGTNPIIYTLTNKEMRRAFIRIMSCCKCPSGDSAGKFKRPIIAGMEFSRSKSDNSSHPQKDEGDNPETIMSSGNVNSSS

The first assay has as its target T1, S1P1 receptor (S1P1 expressing RH7777 membranes) (Homo sapiens, UniProt P21453).
T1 construct: expressed in transfected cells; host or cells: RH7777 cells (membranes)
In words: S1P1 GTPγS assay. The class given is biochemical. Conditions: tested in one of the above S1P1 assays (two GTPγS formats). As for the experimental part: The potencies and efficacies of the compounds of this invention for the S1P1 receptor can be determined by GTPγS assay performed on the human cloned receptor as described herein.
Membrane preparation for S1P1 GTPγS assay
All steps were performed at 4° C. Cells were homogenised within a glass Waring blender for 2 bursts of 15 secs in 200 mls of buffer (50 mM HEPES, 1 mM leupeptin, 25 μg/ml bacitracin, 1 mM EDTA, 1 mM PMSF, 2 μM pepstatin A). The blender was plunged into ice for 5 mins after the first burst and 10-40 mins after the final burst to allow foam to dissipate. The material was then spun at 500 g for 20 mins and the supernatant spun for 36 mins at 48,000 g. The pellet was resuspended in the same buffer as above but without PMSF and pepstatin A. The material was then forced through a 0.6 mm needle, made up to the required volume, (usually x4 the volume of the original cell pellet), aliquoted and stored frozen at −80° C.
S1P1 expressing RH7777 membranes (1.5 μg/well) membranes (1.5 μg/well) were homogenised by passing through a 23 G needle. These were then adhered to WGA-coated SPA beads (0.125 mg/well) in assay buffer (HEPES 20 mM, MgCl2 10 mM, NaCl 100 mM and pH adjusted to 7.4 using KOH 5M). GDP 10 μM FAC and saponin 90 μg/ml FAC were also added
After 30 minutes precoupling on ice, the bead and membrane suspension was dispensed into white Greiner polypropylene LV 384-well plates (5 μl/well), containing […] of compound. 5 μl/well [^35S]-GTPγS (0.5 nM for S1P1 or 0.3 nM for S1P3 final radioligand concentration) made in assay buffer was then added to the plates. The final assay cocktail (10.1 μl) was then sealed, spun on a centrifuge, then read immediately on a Viewlux instrument.
Alternatively, after 30 minutes precoupling on ice, the bead and membrane suspension was mixed with ^35S]-GTPγS (0.5 nM final radioligand concentration) in assay buffer (HEPES 20 mM, MgCl2 10 mM, NaCl 100 mM and pH adjusted to 7.4 using KOH 5M) in a 1:1 ratio. The bead, membrane and radioligand suspension was dispensed into white Greiner polypropylene low volume 384-well plates (10 μl/well), containing 0.1 μl of a solution of test compound in 100% DMSO. The final assay cocktail (10.1 μl) was then sealed, spun on a centrifuge, then read immediately on a Viewlux instrument.
For `Cc1c(-c2noc(-c3ccc(OC(C)C)c(C#N)c3)n2)ccc2c1CCN(C(CO)CO)C2` [Example 65, 5-(3-{2-[2-hydroxy-1-(hydroxymethyl)ethyl]-5-methyl-1,2,3,4-tetrahydro-6-isoquinolinyl}-1,2,4-oxadiazol-5-yl)-2-[(1-methylethyl)oxy]benzonitrile], the EC50 was at most 1000 nM.

In the case of `CCCNc1ccc(-c2nc(-c3ccc4c(c3)CCN(C(=O)CN)CC4)no2)cc1C#N` [Example 53, 5-[3-(3-glycyl-2,3,4,5-tetrahydro-1H-3-benzazepin-7-yl)-1,2,4-oxadiazol-5-yl]-2-(propylamino)benzonitrile], the EC50 was at most 100 nM.

Take `CC(=O)NCCN1CCc2ccc(-c3noc(-c4ccc(OC(C)C)c(C#N)c4)n3)cc2CC1` [Example 101, N-{2-[7-(5-{3-cyano-4-[(1-methylethyl)oxy]phenyl}-1,2,4-oxadiazol-3-yl)-1,2,4,5-tetrahydro-3H-3-benzazepin-3-yl]ethyl}acetamide]: the EC50 was at most 10 nM.

With `CCOc1ccc(-c2nc(-c3ccc4c(c3)CCN(C(=O)CN)CC4)no2)cc1C#N` [Example 61, 2-(ethyloxy)-5-[3-(3-glycyl-2,3,4,5-tetrahydro-1H-3-benzazepin-7-yl)-1,2,4-oxadiazol-5-yl]benzonitrile], the EC50 was at most 100 nM.

As to `N#Cc1cc(-c2nc(-c3ccc4c(c3)CCN(CC(O)CO)CC4)no2)ccc1N1CCC(F)C1` (stereo not drawn) [Example 55, 5-{3-[3-(2,3-dihydroxypropyl)-2,3,4,5-tetrahydro-1H-3-benzazepin-7-yl]-1,2,4-oxadiazol-5-yl}-2-(3-fluoro-1-pyrrolidinyl)benzonitrile], the EC50 was at most 1000 nM.

`CNC(=O)CCN1CCc2c(cccc2-c2nnc(-c3ccc(OC(C)C)c(C#N)c3)s2)C1` [Example 45, 3-[5-(5-{3-cyano-4-[(1-methylethyl)oxy]phenyl}-1,3,4-thiadiazol-2-yl)-3,4-dihydro-2(1H)-isoquinolinyl]-N-methylpropanamide]: the EC50 was over 10000 nM.

In the case of `CCOc1ncc(-c2nc(-c3ccc4c(c3)CCN(C(CO)CO)CC4)no2)cc1C#N` [Example 110, 2-(ethyloxy)-5-(3-{3-[2-hydroxy-1-(hydroxymethyl)ethyl]-2,3,4,5-tetrahydro-1H-3-benzazepin-7-yl}-1,2,4-oxadiazol-5-yl)-3-pyridinecarbonitrile], the EC50 is at most 1000 nM.

Take `CCCOc1ccc(-c2nc(-c3ccc4c(c3)CCN(CC(O)CO)CC4)no2)cc1C#N` (stereo not drawn) [Example 51, 5-{3-[3-(2,3-dihydroxypropyl)-2,3,4,5-tetrahydro-1H-3-benzazepin-7-yl]-1,2,4-oxadiazol-5-yl}-2-(propyloxy)benzonitrile]: the EC50 is at most 100 nM.

As for `Cc1c(-c2noc(-c3ccc(OC(C)C)c(C#N)c3)n2)ccc2c1CCN(C(=O)CN)CC2` [Example 140, 5-[3-(3-glycyl-6-methyl-2,3,4,5-tetrahydro-1H-3-benzazepin-7-yl)-1,2,4-oxadiazol-5-yl]-2-[(1-methylethyl)oxy]benzonitrile hydrochloride], the EC50 is at most 100 nM.

As for `CC(C)Oc1ncc(-c2nc(-c3ccc4c(c3)CCN(C(CO)CO)CC4)no2)cc1C#N` [Example 95, 5-(3-{3-[2-hydroxy-1-(hydroxymethyl)ethyl]-2,3,4,5-tetrahydro-1H-3-benzazepin-7-yl}-1,2,4-oxadiazol-5-yl)-2-[(1-methylethyl)oxy]-3-pyridinecarbonitrile], the EC50 was at most 10 nM.

`N#Cc1cc(-c2nc(-c3ccc4c(c3)CCN(CC(O)CO)CC4)no2)ccc1N1CC(F)C1` (stereo not drawn) [Example 104, 5-{3-[3-(2,3-dihydroxypropyl)-2,3,4,5-tetrahydro-1H-3-benzazepin-7-yl]-1,2,4-oxadiazol-5-yl}-2-(3-fluoro-1-azetidinyl)benzonitrile]: the EC50 was over 10000 nM.

With `CC(C)Oc1ccc(-c2nc(-c3cccc4c3CCN(CC(O)CO)CC4)no2)cc1C#N` (stereo not drawn) [Example 35, 5-{3-[3-(2,3-Dihydroxypropyl)-2,3,4,5-tetrahydro-1H-3-benzazepin-6-yl]-1,2,4-oxadiazol-5-yl}-2-[(1-methylethyl)oxy]benzonitrile hydrochloride], the EC50 is at most 100 nM.

Consider `Cc1c(-c2noc(-c3ccc(OC(C)C)c(C#N)c3)n2)ccc2c1CCN(C(CO)CO)C2` [Example 66, 5-(3-{2-[2-hydroxy-1-(hydroxymethyl)ethyl]-5-methyl-1,2,3,4-tetrahydro-6-isoquinolinyl}-1,2,4-oxadiazol-5-yl)-2-[(1-methylethyl)oxy]benzonitrile hydrochloride], for which the EC50 was at most 100 nM.

As to `COCCN1CCc2ccc(-c3nnc(-c4ccc(OC(C)C)c(C#N)c4)s3)cc2CC1` [Example 30, 2-[(1-Methylethyl)oxy]-5-(5-{3-[2-(methyloxy)ethyl]-2,3,4,5-tetrahydro-1H-3-benzazepin-7-yl}-1,3,4-thiadiazol-2-yl)benzonitrile hydrochloride], the EC50 was at most 1000 nM.

As for `CC(C)Oc1ccc(-c2nc(-c3cccc4c3CCN(CCC(N)=O)CC4)no2)cc1C#N` [Example 32, 3-[6-(5-{3-Cyano-4-[(1-methylethyl)oxy]phenyl}-1,2,4-oxadiazol-3-yl)-1,2,4,5-tetrahydro-3H-3-benzazepin-3-yl]propanamide], the EC50 was at most 1000 nM.

Take `Cc1c(-c2nnc(-c3ccc(OC(C)C)c(C#N)c3)s2)ccc2c1CCN(CCCO)C2` [Example 16, 5-{5-[2-(3-Hydroxypropyl)-5-methyl-1,2,3,4-tetrahydro-6-isoquinolinyl]-1,3,4-thiadiazol-2-yl}-2-[(1-methylethyl)oxy]benzonitrile]: the EC50 was at most 1000 nM.

As for `CC(C)Oc1ccc(-c2nc(-c3cccc4c3CCN(CCCO)CC4)no2)cc1C#N` [Example 33, 5-{3-[3-(3-Hydroxypropyl)-2,3,4,5-tetrahydro-1H-3-benzazepin-6-yl]-1,2,4-oxadiazol-5-yl}-2-[(1-methylethyl)oxy]benzonitrile], the EC50 was at most 100 nM.

Compound `CCCNc1ccc(-c2nc(-c3ccc4c(c3)CCN(CC(O)CO)CC4)no2)cc1C#N` (stereo not drawn) [Example 50, 5-{3-[3-(2,3-dihydroxypropyl)-2,3,4,5-tetrahydro-1H-3-benzazepin-7-yl]-1,2,4-oxadiazol-5-yl}-2-(propylamino)benzonitrile] had an EC50 of at most 100 nM.

The target of another assay is T2, S1P1 (PathHunter CHO-K1 EDG1 β-Arrestin cell line) (Homo sapiens, UniProt P21453).
T2 construct: host or cells: PathHunter CHO-K1 EDG1 β-Arrestin cell line
T2 sequence (P21453 whole entry): as above
T2 sequence (P32121 whole entry partner): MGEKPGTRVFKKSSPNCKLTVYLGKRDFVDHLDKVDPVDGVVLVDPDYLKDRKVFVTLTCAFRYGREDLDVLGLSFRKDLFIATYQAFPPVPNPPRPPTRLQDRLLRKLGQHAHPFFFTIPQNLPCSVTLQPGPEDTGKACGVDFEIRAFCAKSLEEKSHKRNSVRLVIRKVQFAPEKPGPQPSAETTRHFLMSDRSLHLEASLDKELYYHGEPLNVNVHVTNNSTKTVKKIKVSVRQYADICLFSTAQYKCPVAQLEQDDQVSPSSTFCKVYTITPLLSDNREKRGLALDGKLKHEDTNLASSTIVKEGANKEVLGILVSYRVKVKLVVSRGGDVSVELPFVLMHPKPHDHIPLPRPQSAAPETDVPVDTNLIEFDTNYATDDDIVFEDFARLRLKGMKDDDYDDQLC
Description: S1P-1 β-Arrestin recruitment assay. The assay is classed as cell-based. Conditions: CHO-K1 EDG1 β-Arrestin cells, chemi-luminescence. The method, then:
S1P-1 β-Arrestin Recruitment Assay
β-Arrestin recruitment assays were carried out using the PathHunter CHO-K1 EDG1
β-Arrestin cell line (DiscoveRx Corporation) in a chemi-luminescence detection assay. This cell line stably expresses β-Arrestin 2 and S1P1 fused to complementing portions of β-galactosidase (‘EA’ and ‘pro-link’, respectively) which associate upon Arrestin recruitment to form functional β-galactosidase enzyme.
Cells were grown to 80% confluency in Growth Medium (F12 nutrient HAMS supplemented with 10% heat-inactivated USA FBS, 1% L-glutamax, 800 μg/ml Geneticin and 300 μg/ml Hygromycin). Cells were harvested from the flask using Enzyme Free Cell Dissociation Buffer (Gibco) and washed from flasks with Optimem solution (Gibco). Cells were then centrifuged at 1000 rpm for 2-3 min and resuspended in Assay Buffer (Prepared from Sigma kit H1387 supplemented with 20 ml/L HEPES, 4.7 ml/L NaHCO3, 0.1% pluronic acid F-68 solution, 0.1% BSA and adjusted to pH 7.4 using sodium hydroxide at 1×10^6 cells/ml. Cells were dispensed into assay plates containing compounds (100n1/well of a solution of test compound in 100% DMSO) at 1×10^4 cells/well and incubated at 37° C./5% CO2 for 90 min followed by 15 min at room temperature. 5 μl detection mix (1 part Galacton Star, 5 parts Emerald II, 19 parts Assay Buffer; DiscoveRx) were added per well and the plates incubated at room temperature for 60 min. Luminescence was quantified using a Viewlux plate reader.
The compound `CC(C)Oc1ccc(-c2nc(-c3cccc4c3CCN(C[C@@H](O)CO)C4)no2)cc1C#N` [Example 178, 5-(3-{2-[(2R)-2,3-dihydroxypropyl]-1,2,3,4-tetrahydro-5-isoquinolinyl}-1,2,4-oxadiazol-5-yl)-2-[(1-methylethyl)oxy]benzonitrile hydrochloride] showed an EC50 of at most 10 nM.

Regarding `CC(C)Oc1ccc(-c2nc(-c3cccc4c3CCN(C(CO)CO)C4)no2)cc1C#N` [Example 180, 5-(3-{2-[2-hydroxy-1-(hydroxymethyl)ethyl]-1,2,3,4-tetrahydro-5-isoquinolinyl}-1,2,4-oxadiazol-5-yl)-2-[(1-methylethyl)oxy]benzonitrile hydrochloride], the EC50 was at most 10 nM.

`Cc1c(-c2noc(-c3ccc(OC(C)C)c(Cl)c3)n2)ccc2c1CCN(CC(=O)NCCO)C2` [Example 136, 2-[6-(5-{3-chloro-4-[(1-methylethyl)oxy]phenyl}-1,2,4-oxadiazol-3-yl)-5-methyl-3,4-dihydro-2(1H)-isoquinolinyl]-N-(2-hydroxyethyl)acetamide hydrochloride]: the EC50 is at most 10 nM.
